According to ChEMBL document CHEMBL3525901 (Drug Metab Dispos, 2012):

Legend:
Assay type in all cases: ADME, organism-based
Plasma [1] = experiment: Unbound Cmax in Wistar rat plasma at […], sc by HPLC-MS/MS analysis; parameters: dose 1.6 mg/kg, route subcutaneous; conditions: in vivo
[2] = Equilibration rate constant in Wistar rat brain extracellular fluid at […], sc by HPLC-MS/MS analysis; parameters: dose 1.6 mg/kg, route subcutaneous; conditions: in vivo
[3] = Fraction unbound in Wistar rat plasma at […], sc by HPLC-MS/MS analysis; parameters: dose 1.6 mg/kg, route subcutaneous
Plasma [4] = experiment: Unbound AUC (0 to infinity) in Wistar rat plasma at […], sc by HPLC-MS/MS analysis; parameters: dose 1.6 mg/kg, route subcutaneous; conditions: in vivo
[5] = AUC (0 to infinity) in Wistar rat extracellular fluid at […], sc by HPLC-MS/MS analysis; parameters: dose 1.6 mg/kg, route subcutaneous, time infinity
[6] = Unbound Tmax in Wistar rat plasma at […], sc by HPLC-MS/MS analysis; parameters: dose 1.6 mg/kg, route subcutaneous; conditions: read-out: fTmax (converted)
[7] = Cmax in Wistar rat extracellular fluid at […], sc by HPLC-MS/MS analysis; parameters: dose 1.6 mg/kg, route subcutaneous
[8] = Systemic clearance in Wistar rat extracellular fluid at […], sc by HPLC-MS/MS analysis; parameters: dose 1.6 mg/kg, route subcutaneous
Brain [9] = experiment: Unbound volume of distribution in Wistar rat brain at […], sc by HPLC-MS/MS analysis; parameters: dose 1.6 mg/kg, route subcutaneous; conditions: in vivo
[10] = Tmax in Wistar rat extracellular fluid at […], sc by HPLC-MS/MS analysis; parameters: dose 1.6 mg/kg, route subcutaneous
Rattus norvegicus [11] = experiment: Central volume of distribution in Wistar rat extracellular fluid at […], sc by HPLC-MS/MS analysis; parameters: dose 1.6 mg/kg, route subcutaneous; conditions: in vivo
[12] = Ratio of unbound AUC in extracellular fluid to unbound AUC in plasma of Wistar rat at […], sc by HPLC-MS/MS analysis; parameters: dose 1.6 mg/kg, route subcutaneous; conditions: read-out: Ratio AUC
[13] = Ratio of steady state drug level in extracellular fluid to unbound drug level in plasma of Wistar rat at […], sc by HPLC-MS/MS analysis; parameters: dose 1.6 mg/kg, route subcutaneous
[14] = Ratio of uptake clearance to efflux clearance in Wistar rat brain extracellular fluid at […], sc by HPLC-MS/MS analysis; parameters: dose 1.6 mg/kg, route subcutaneous; conditions: in vivo
Rattus norvegicus [15] = experiment: Absorption rate constant in Wistar rat extracellular fluid at […], sc by HPLC-MS/MS analysis; parameters: dose 1.6 mg/kg, route subcutaneous; conditions: in vivo
[16] = Unbound Tmax in Wistar rat plasma at 10 mg/kg, sc by HPLC-MS/MS analysis; parameters: dose 10 mg/kg, route subcutaneous; conditions: read-out: fTmax (converted)
Brain [17] = experiment: Unbound volume of distribution in Wistar rat brain at 10 mg/kg, sc by HPLC-MS/MS analysis; parameters: dose 10 mg/kg, route subcutaneous; conditions: in vivo
[18] = Ratio of unbound AUC in extracellular fluid to unbound AUC in plasma of Wistar rat at 10 mg/kg, sc by HPLC-MS/MS analysis; parameters: dose 10 mg/kg, route subcutaneous; conditions: read-out: Ratio AUC
[19] = AUC (0 to infinity) in rat; parameters: time infinity; conditions: plasma
[20] = Ratio of steady state drug level in extracellular fluid to unbound drug level in plasma of Wistar rat at 10 mg/kg, sc by HPLC-MS/MS analysis; parameters: dose 10 mg/kg, route subcutaneous
[21] = Tmax in Wistar rat extracellular fluid at 10 mg/kg, sc by HPLC-MS/MS analysis; parameters: dose 10 mg/kg, route subcutaneous
[22] = Cmax in Wistar rat extracellular fluid at 10 mg/kg, sc by HPLC-MS/MS analysis; parameters: dose 10 mg/kg, route subcutaneous
[23] = AUC (0 to infinity) in Wistar rat extracellular fluid at 10 mg/kg, sc by HPLC-MS/MS analysis; parameters: time infinity, dose 10 mg/kg, route subcutaneous
Plasma [24] = experiment: Unbound Cmax in Wistar rat plasma at 10 mg/kg, sc by HPLC-MS/MS analysis; parameters: dose 10 mg/kg, route subcutaneous; conditions: in vivo
Plasma [25] = experiment: Unbound AUC (0 to infinity) in Wistar rat plasma at 10 mg/kg, sc by HPLC-MS/MS analysis; parameters: dose 10 mg/kg, route subcutaneous; conditions: in vivo
[26] = Fraction unbound in Wistar rat plasma at 10 mg/kg, sc by HPLC-MS/MS analysis; parameters: dose 10 mg/kg, route subcutaneous
Plasma [27] = experiment: Unbound Cmax in Wistar rat plasma at 3 mg/kg, sc by HPLC-MS/MS analysis; parameters: dose 3 mg/kg, route subcutaneous; conditions: in vivo
[28] = Fraction unbound in Wistar rat plasma at 3 mg/kg, sc by HPLC-MS/MS analysis; parameters: dose 3 mg/kg, route subcutaneous
Brain [29] = experiment: Unbound volume of distribution in Wistar rat brain at 3 mg/kg, sc by HPLC-MS/MS analysis; parameters: dose 3 mg/kg, route subcutaneous; conditions: in vivo
[30] = AUC (0 to infinity) in Wistar rat extracellular fluid at 3 mg/kg, sc by HPLC-MS/MS analysis; parameters: time infinity, dose 3 mg/kg, route subcutaneous
Rattus norvegicus [31] = experiment: Absorption rate constant in Wistar rat extracellular fluid at 3 mg/kg, sc by HPLC-MS/MS analysis; parameters: dose 3 mg/kg, route subcutaneous; conditions: in vivo
[32] = Ratio of uptake clearance to efflux clearance in Wistar rat brain extracellular fluid at 3 mg/kg, sc by HPLC-MS/MS analysis; parameters: dose 3 mg/kg, route subcutaneous; conditions: in vivo
[33] = Tmax in Wistar rat extracellular fluid at 3 mg/kg, sc by HPLC-MS/MS analysis; parameters: dose 3 mg/kg, route subcutaneous
Rattus norvegicus [34] = experiment: Central volume of distribution in Wistar rat extracellular fluid at 3 mg/kg, sc by HPLC-MS/MS analysis; parameters: dose 3 mg/kg, route subcutaneous; conditions: in vivo
[35] = Systemic clearance in Wistar rat extracellular fluid at 3 mg/kg, sc by HPLC-MS/MS analysis; parameters: dose 3 mg/kg, route subcutaneous
[36] = Ratio of unbound AUC in extracellular fluid to unbound AUC in plasma of Wistar rat at 3 mg/kg, sc by HPLC-MS/MS analysis; parameters: dose 3 mg/kg, route subcutaneous; conditions: read-out: Ratio AUC
Plasma [37] = experiment: Unbound AUC (0 to infinity) in Wistar rat plasma at 3 mg/kg, sc by HPLC-MS/MS analysis; parameters: dose 3 mg/kg, route subcutaneous; conditions: in vivo
[38] = Ratio of steady state drug level in extracellular fluid to unbound drug level in plasma of Wistar rat at 3 mg/kg, sc by HPLC-MS/MS analysis; parameters: dose 3 mg/kg, route subcutaneous
[39] = Equilibration rate constant in Wistar rat brain extracellular fluid at 3 mg/kg, sc by HPLC-MS/MS analysis; parameters: dose 3 mg/kg, route subcutaneous; conditions: in vivo
[40] = Cmax in Wistar rat extracellular fluid at 3 mg/kg, sc by HPLC-MS/MS analysis; parameters: dose 3 mg/kg, route subcutaneous
[41] = Unbound Tmax in Wistar rat plasma at 3 mg/kg, sc by HPLC-MS/MS analysis; parameters: dose 3 mg/kg, route subcutaneous; conditions: read-out: fTmax (converted)
[42] = Systemic clearance in Wistar rat extracellular fluid at 10 mg/kg, sc by HPLC-MS/MS analysis; parameters: dose 10 mg/kg, route subcutaneous
Rattus norvegicus [43] = experiment: Absorption rate constant in Wistar rat extracellular fluid at 10 mg/kg, sc by HPLC-MS/MS analysis; parameters: dose 10 mg/kg, route subcutaneous; conditions: in vivo
[44] = Ratio of uptake clearance to efflux clearance in Wistar rat brain extracellular fluid at 10 mg/kg, sc by HPLC-MS/MS analysis; parameters: dose 10 mg/kg, route subcutaneous; conditions: in vivo
Rattus norvegicus [45] = experiment: Central volume of distribution in Wistar rat extracellular fluid at 10 mg/kg, sc by HPLC-MS/MS analysis; parameters: dose 10 mg/kg, route subcutaneous; conditions: in vivo
[46] = Equilibration rate constant in Wistar rat brain extracellular fluid at 10 mg/kg, sc by HPLC-MS/MS analysis; parameters: dose 10 mg/kg, route subcutaneous; conditions: in vivo

CN(C)CCC[C@@]1(c2ccc(F)cc2)OCc2cc(C#N)ccc21 [ESCITALOPRAM]
fCmax (Plasma [1]): 131 nM | Ke [2]: 0.015 min⁻¹ | fraction unbound [3]: 0.5 | fAUC (Plasma [4]): 13888 nM·min | AUC(0-inf) [5]: 0.197 µM·h | Tmax [6]: 0.433 h | Cmax [7]: 62 nM | CL/F [8]: 277 mL/min/kg | Vdu (Brain [9]): 18 mL/g | Tmax [10]: 2 h | Vd (Rattus norvegicus [11]): 4.1 L/kg | Kp uu [12]: 0.86 | Kp uu [13]: 1.06 | Ratio [14]: 1.24 | ka (Rattus norvegicus [15]): 0.02 min⁻¹

CN1CCN(C2=Nc3cc(Cl)ccc3Nc3ccccc32)CC1 [CLOZAPINE]
Tmax [16]: 1 h | Vdu (Brain [17]): 70 mL/g | Kp uu [18]: 0.15 | AUC(0-inf) [19]: 5.39 µM·h | Kp uu [20]: 0.13 | Tmax [21]: 4 h | Cmax [22]: 6 nM | AUC(0-inf) [23]: 0.0443 µM·h | fCmax (Plasma [24]): 77 nM | fAUC (Plasma [25]): 19732 nM·min | fraction unbound [26]: 0.061

Cc1nc2n(c(=O)c1CCN1CCC(c3noc4cc(F)ccc34)CC1)CCCC2 [RISPERIDONE]
fCmax (Plasma [27]): 181 nM | fraction unbound [28]: 0.16 | Vdu (Brain [29]): 10 mL/g | AUC(0-inf) [30]: 0.0591 µM·h | ka (Rattus norvegicus [31]): 0.03 min⁻¹ | Ratio [32]: 0.14 | Tmax [33]: 1.25 h | Vd (Rattus norvegicus [34]): 21 L/kg | CL/F [35]: 307 mL/min/kg | Kp uu [36]: 0.15 | fAUC (Plasma [37]): 24022 nM·min | Kp uu [38]: 0.21 | Ke [39]: 0.006 min⁻¹ | Cmax [40]: 20 nM | Tmax [41]: 0.883 h

Clc1ccc2c(c1)N=C(N1CCNCC1)c1ccccc1N2 [N-DESMETHYLCLOZAPINE]
Tmax [16]: 1.05 h | Vdu (Brain [17]): 82 mL/g | Kp uu [18]: 0.03 | CL/F [42]: 1600 mL/min/kg | ka (Rattus norvegicus [43]): 0.5 min⁻¹ | Kp uu [20]: 0.04 | Tmax [21]: 4.63 h | Cmax [22]: 2 nM | Ratio [44]: 0.05 | Vd (Rattus norvegicus [45]): 607 L/kg | AUC(0-inf) [23]: 0.0134 µM·h | fCmax (Plasma [24]): 90 nM | fAUC (Plasma [25]): 32296 nM·min | fraction unbound [26]: 0.11 | Ke [46]: 0.006 min⁻¹
